Results reported in ChEMBL document CHEMBL1201862, “PubChem BioAssay data set” (2004).
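Exposure lasted 48 hours, with cells grown in 96-well plates and compounds tested at five concentrations. At the GI50, growth is halved.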 Activity calls are given as the source filed them. Cut-off read from the data, not from the text of the source: active = GI50 up to about 1.1 µM and inactive = higher. Where a SMILES comes first, the peptide text is derived from it. Square brackets hold non-standard residues; d marks the D form. Peptide text beside a SMILES is read from it.

What was measured:
Assay in all cases: NCI anticancer screen, dose series, 48 h
ACHN = test system: ACHN
COLO 205 = test system: COLO 205
HCT-116 = test system: HCT-116
HL-60 = test system: HL-60
HOP-92 = test system: HOP-92
K562 = test system: K562
RPMI-8226 = test system: RPMI-8226
SF-268 = test system: SF-268
SK-MEL-28 = test system: SK-MEL-28
SK-MEL-2 = test system: SK-MEL-2
SK-MEL-5 = test system: SK-MEL-5
SNB-19 = test system: SNB-19
SW-620 = test system: SW-620
CAKI-1 = test system: CAKI-1
KM12 = test system: KM12
OVCAR-3 = test system: OVCAR-3
UACC-257 = test system: UACC-257

Row | Structure (SMILES) | GI50 (ACHN) | GI50 (COLO 205) | GI50 (HCT-116) | GI50 (HL-60) | GI50 (HOP-92) | GI50 (K562) | GI50 (RPMI-8226) | GI50 (SF-268) | GI50 (SK-MEL-28) | GI50 (SK-MEL-2) | GI50 (SK-MEL-5) | GI50 (SNB-19) | GI50 (SW-620) | GI50 (CAKI-1) | GI50 (KM12) | GI50 (OVCAR-3) | GI50 (UACC-257)
1 | N#CNCC(COCc1ccccc1)c1ccccc1 (centres undefined) | > 100 µM (inactive) | > 100 µM (inactive) | > 100 µM (inactive) | 61.4 µM (inactive) | > 100 µM (inactive) | 40.3 µM (inactive) | > 100 µM (inactive) | > 100 µM (inactive) | > 100 µM (inactive) | 43.5 µM (inactive) | 49.2 µM (inactive) | > 100 µM (inactive) | 70.5 µM (inactive) |  |  |  | 
2 | CCOc1ccc(OCC)c([P+](c2ccccc2)(c2ccccc2)c2ccccc2)c1 | 1.65 µM (inactive) | 0.299 µM (active) | 0.27 µM (active) | 0.114 µM (active) | 0.182 µM (active) | 0.213 µM (active) | 0.286 µM (active) | 0.617 µM (active) | 0.818 µM (active) |  | 0.267 µM (active) | 0.378 µM (active) | 0.44 µM (active) | 1.29 µM (inactive) | 0.178 µM (active) | 0.162 µM (active) | 0.215 µM (active)
3 | Cc1cc(/N=N/c2ccc(/N=N/c3c(O)c(S(=O)(=O)O)cc4cc(S(=O)(=O)O)ccc34)cc2C)ccc1/N=N/c1ccc2cc(S(=O)(=O)O)cc(S(=O)(=O)O)c2c1 |  | > 100 µM (inactive) | > 100 µM (inactive) | > 100 µM (inactive) | > 68.5 µM (inactive) | > 100 µM (inactive) | > 100 µM (inactive) | > 100 µM (inactive) | > 100 µM (inactive) | > 100 µM (inactive) | > 100 µM (inactive) | > 100 µM (inactive) | > 100 µM (inactive) |  | > 72.4 µM (inactive) | > 100 µM (inactive) | > 100 µM (inactive)
4 | C/C(=N\Nc1nnc(S)n1N)c1c(O)cc(C)oc1=O | > 100 µM (inactive) |  | > 100 µM (inactive) | > 100 µM (inactive) | > 100 µM (inactive) | > 100 µM (inactive) |  | > 100 µM (inactive) | > 100 µM (inactive) | > 100 µM (inactive) |  | > 100 µM (inactive) | > 100 µM (inactive) | > 100 µM (inactive) | > 100 µM (inactive) |  | > 100 µM (inactive)
5 | C/C=C/CC(S(=O)(=O)c1ccccc1)S(=O)(=O)c1ccccc1 | > 100 µM (inactive) | > 100 µM (inactive) | > 100 µM (inactive) | > 100 µM (inactive) | > 100 µM (inactive) | > 100 µM (inactive) | 95.3 µM (inactive) |  | > 100 µM (inactive) | > 100 µM (inactive) | > 100 µM (inactive) | > 100 µM (inactive) | > 100 µM (inactive) |  | > 100 µM (inactive) | > 100 µM (inactive) | > 100 µM (inactive)
6 | CC12O[Te]34OC1(C)C(C)(O3)C2(C)O4 | 14.8 µM (inactive) | 16.9 µM (inactive) | 11.9 µM (inactive) |  |  |  |  | 11.8 µM (inactive) | 12 µM (inactive) | 15.7 µM (inactive) |  | 14.6 µM (inactive) | 14.8 µM (inactive) | 9.71 µM (inactive) | 14.8 µM (inactive) | 17.9 µM (inactive) | 17.4 µM (inactive)
7 | O=C1C(=O)N(c2ccc(Cl)c(Cl)c2)C(=O)C(=O)C1c1nc2ccccc2s1 | > 100 µM (inactive) | > 100 µM (inactive) | > 100 µM (inactive) |  | 9.55 µM (inactive) |  | > 100 µM (inactive) | > 100 µM (inactive) | > 100 µM (inactive) | > 100 µM (inactive) | > 100 µM (inactive) | 44 µM (inactive) | > 100 µM (inactive) | > 100 µM (inactive) |  | > 100 µM (inactive) | > 100 µM (inactive)
8 | CN(/N=N/c1[nH]cnc1C(N)=O)C1CCCCC1 | > 100 µM (inactive) | > 100 µM (inactive) | 50.4 µM (inactive) | 29.5 µM (inactive) | 55.1 µM (inactive) |  | 52.6 µM (inactive) | > 100 µM (inactive) | > 100 µM (inactive) | 27.1 µM (inactive) | > 100 µM (inactive) | > 100 µM (inactive) | 69 µM (inactive) |  | > 100 µM (inactive) | 75.7 µM (inactive) | 62.1 µM (inactive)
9 | CC1=NN2C(c3ccc([N+](=O)[O-])cc3)=CSC2=NC(C)(C)C1 | > 100 µM (inactive) | > 100 µM (inactive) | > 100 µM (inactive) | > 100 µM (inactive) | 79.6 µM (inactive) | > 100 µM (inactive) | > 100 µM (inactive) | > 100 µM (inactive) | > 100 µM (inactive) | > 100 µM (inactive) | > 100 µM (inactive) | > 100 µM (inactive) | > 100 µM (inactive) |  | > 100 µM (inactive) | > 100 µM (inactive) | > 100 µM (inactive)
10 | CN(C)c1cccc(OC(=O)NCCCl)c1 |  | > 100 µM (inactive) | > 100 µM (inactive) | > 100 µM (inactive) | 65.3 µM (inactive) | > 100 µM (inactive) |  | > 100 µM (inactive) | > 100 µM (inactive) | > 100 µM (inactive) | > 100 µM (inactive) | > 100 µM (inactive) | > 100 µM (inactive) | > 100 µM (inactive) | > 100 µM (inactive) | > 100 µM (inactive) | > 100 µM (inactive)
11 | CCOC(=O)C(Sc1ccccc1)c1c(OC)cc(=O)oc1/C=[N+](/[O-])c1ccc(N(C)C)cc1 (centres undefined) | > 10 µM (inactive) | 22.4 µM (inactive) |  |  |  | 6.81 µM (inactive) | 19.6 µM (inactive) | 31.5 µM (inactive) | 17.5 µM (inactive) | 24.9 µM (inactive) | 20 µM (inactive) | 54.8 µM (inactive) | 14.7 µM (inactive) | 14.9 µM (inactive) | 21.7 µM (inactive) | 13.2 µM (inactive) | 14.6 µM (inactive)
12 | CN(C)CC1CCC/C1=N/OC(=O)c1ccccc1 (centres undefined) | > 100 µM (inactive) | > 100 µM (inactive) | > 100 µM (inactive) |  | > 100 µM (inactive) | > 100 µM (inactive) | > 100 µM (inactive) | > 100 µM (inactive) | > 100 µM (inactive) | > 100 µM (inactive) | > 100 µM (inactive) |  | > 100 µM (inactive) | > 100 µM (inactive) |  | > 100 µM (inactive) | > 100 µM (inactive)
13 | O=C(Nc1ccccc1-c1nn(CN2CCNCC2)c(=S)n(CN2CCNCC2)c1=O)C(F)(F)F | 25.3 µM (inactive) | 17.1 µM (inactive) | 17.8 µM (inactive) | 16.4 µM (inactive) | 22 µM (inactive) | 21.9 µM (inactive) |  | 21.4 µM (inactive) | 18.9 µM (inactive) | 19.4 µM (inactive) | 17.3 µM (inactive) | 21.6 µM (inactive) | 10.1 µM (inactive) | 23.9 µM (inactive) | 19.7 µM (inactive) | 20.7 µM (inactive) | 17.2 µM (inactive)
14 | Cc1nc2c(=O)n(C)c(=O)nc-2n(-c2ccc(Cl)cc2)c1C | 58.6 µM (inactive) | > 100 µM (inactive) |  | 45.3 µM (inactive) | > 100 µM (inactive) | 41.7 µM (inactive) |  | > 100 µM (inactive) | > 100 µM (inactive) | > 100 µM (inactive) | 79.1 µM (inactive) | > 100 µM (inactive) | > 100 µM (inactive) | 43.1 µM (inactive) | > 100 µM (inactive) | > 100 µM (inactive) | > 100 µM (inactive)
15 | CC1NC(=O)CNC(=O)CNC(=O)C(Cc2ccc(O)cc2)NC(=O)C(C(C)C)NC(=O)C(C)NC1=O (centres undefined) (cyclo(GGAAVY); configuration not given here) |  | > 100 µM (inactive) | > 100 µM (inactive) | > 100 µM (inactive) | 50.8 µM (inactive) |  | > 100 µM (inactive) | > 100 µM (inactive) | > 100 µM (inactive) | > 100 µM (inactive) | > 100 µM (inactive) | > 100 µM (inactive) | > 100 µM (inactive) | > 100 µM (inactive) | > 100 µM (inactive) | > 100 µM (inactive) | > 100 µM (inactive)
16 | CC(C)C[C@H](NC(=O)[C@H](CC(C)C)NC(=O)[C@@H](Cc1c[nH]c2ccccc12)NC(=O)[C@H](Cc1ccccc1)NC(=O)[C@@H](Cc1c[nH]c2ccccc12)NC(=O)[C@H](CCC(N)=O)NC(=O)[C@@H](CCC(N)=O)NC(=O)[C@@H]1CCCN1C(=O)[C@@H](CCCCN)NC(=O)[C@H]1CCCN1C(=O)[C@H](N)CCCN=C(N)N)C(N)=O (H-[dR][dP][dK]P[dQ]Q[dW]F[dW]LL-NH2) |  | > 100 µM (inactive) | > 100 µM (inactive) | > 100 µM (inactive) | > 100 µM (inactive) | > 100 µM (inactive) | > 100 µM (inactive) | > 100 µM (inactive) | > 100 µM (inactive) | > 100 µM (inactive) | > 100 µM (inactive) | 44.9 µM (inactive) | > 100 µM (inactive) |  | > 100 µM (inactive) | > 86.3 µM (inactive) | > 48.3 µM (inactive)
17 | CCOc1ccccc1NC(=O)CC1Sc2ccccc2NC1=O (centres undefined) | 75.9 µM (inactive) | 33.3 µM (inactive) | > 100 µM (inactive) | 23.9 µM (inactive) | 18.2 µM (inactive) | 38 µM (inactive) |  | > 100 µM (inactive) | > 100 µM (inactive) | 45.8 µM (inactive) | 26.1 µM (inactive) | > 100 µM (inactive) | 49.2 µM (inactive) | 95.7 µM (inactive) | 38.1 µM (inactive) | 37.5 µM (inactive) | > 100 µM (inactive)
